The record followed here is US7807367B2, “Enzymatic fluorometric assay for cAMP and adenylate cyclase and kits therefor” (Fuso Pharmaceutical Industries, Ltd., priority 1999, dated 2010).

In the test the test system is ventricular myocytes. Nature of the test: Micro cAMP measurement in tissue cultures with enzymatic fluorometric assay. The format is cell-based, rat. As to conditions: isolated ventricular myocytes of 1 day-old rats, 2 μM IBMX, isoproterenol 1 μM final, 5 minutes, one-tenth of eluent, cAMP standard curve. The protocol: Isolated ventricular myocytes were obtained from hearts of 1 day-old rats, grown in primary cultures. There were approximately 5 million viable myocardial cells per heart. After plating at a density of approximately 1 million cells per 100 mm, dish cells were grown in minimum essential medium with Hanks balanced salt solution containing 5% bovine calf serum cells. Simpson et al., Cir. Res., 51, 787 (1982). On day 4, the medium was changed. The cultures contained >90% myocardial cells and cell numbers were constant over time. Simpson et al., Cir. Res., 51, 787 (1982); Rocha-Singh et al., J. Clin. Invest., 88, 204 (1991); and Rocha-Singh et al., J. Clin. Invest., 88, 706 (1991)
Six plates of myocytes were randomized into two groups (n=3 plates/group). […]
A volume of 125 μL of the Detecting Reaction Mixture prepared from (E) (100 mM Tris-HCl, pH 8.0; 3.2 mM EDTA; 0.6 mM NADP^+; 1 U/mL Phosphoglucose isomerase; 0.5 U/mL Glucose-6-phosphate dehydrogenase) was added to each assay tube from Cycling Reactions. After 20 minutes at room temperature, the final concentration of NADPH was measured using a fluorometer (Optical Technology Devises, Inc., NY). The fluorometer was set such that a reading of 10 fluorometric units was equivalent to 1 nmol of NADPH in 900 μL of buffer (50 mM Tris-HCl, pH 8.0). […]

For `CC(C)NCC(O)c1ccc(O)c(O)c1` (stereo not shown) [isoproterenol], the “actual value of cAMP” value is on record as 680 pmol/100 mm plate.
